Laboratory results from patent publication US20220315578A1, “BRD9 BIFUNCTIONAL DEGRADERS AND THEIR METHODS OF USE” (NOVARTIS AG, priority 2019, published 2022).

Molecular target: T1, BRD9-GFP (Homo sapiens, UniProt Q9H8M2)
T1 construct: CHYSEL (2A cis-acting hydrolase element) remnant after GFP; mCherry is split off as a separate protein (C); expressed in transfected cells; host or cells: HEK293A cells (Invitrogen R70507), lentiviral transduction with pLenti6-BRD9-GFP-CHYSEL-mCherry, blasticidin selection
T1 sequence (Q9H8M2 1-597): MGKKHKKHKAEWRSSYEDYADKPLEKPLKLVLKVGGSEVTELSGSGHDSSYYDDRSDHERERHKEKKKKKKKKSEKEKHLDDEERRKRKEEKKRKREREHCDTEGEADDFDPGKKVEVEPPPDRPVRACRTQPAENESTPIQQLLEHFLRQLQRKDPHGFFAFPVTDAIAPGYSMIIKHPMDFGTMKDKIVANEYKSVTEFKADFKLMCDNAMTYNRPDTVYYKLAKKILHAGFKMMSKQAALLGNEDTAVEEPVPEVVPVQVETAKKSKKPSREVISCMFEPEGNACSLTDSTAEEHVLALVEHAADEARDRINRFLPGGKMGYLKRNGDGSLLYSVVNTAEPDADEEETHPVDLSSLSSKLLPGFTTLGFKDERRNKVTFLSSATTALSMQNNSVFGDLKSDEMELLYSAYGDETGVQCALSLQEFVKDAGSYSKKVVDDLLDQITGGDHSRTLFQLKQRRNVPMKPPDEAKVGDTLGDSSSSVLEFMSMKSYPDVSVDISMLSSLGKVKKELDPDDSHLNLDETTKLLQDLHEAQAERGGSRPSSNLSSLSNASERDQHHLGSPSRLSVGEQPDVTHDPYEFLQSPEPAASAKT
Assay: BRD9-GFP protein abundance flow cytometry assay in HEK293A cells
Type: cell-based
Conditions: HEK293A-BRD9-GFP-CHYSEL-mCherry cells; for BRD9 Deg Amax %: 24 h, % protein remaining at the concentration at which maximum degradation is seen; for DC50: 24 h at 37° C., 10-point 1:3 dilution, concentration at which 50% maximal degradation was observed
Procedure, shortened: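 HEK293A cells stably express bicistronic BRD9-GFP-CHYSEL-mCherry and received 24 h treatment at 37° C with a 10-point, 3-fold dilution series from […], in 0.1% DMSO and duplicate. Median GFP/mCherry ratio of 5,000 single cells by flow cytometry, normalized to mCherry-only cells (0%) and DMSO (100%), gave DC50 and Amax (% protein remaining).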

| BRD9 Deg Amax % | DC50 | Compound |
| --- | --- | --- |
| 14.20% | 4 nM | COc1cc(-c2cn(C)c(=O)c3cnccc23)cc(OC)c1CCN1CCC(OC2CCN(C(=O)c3cccc(N4CCC(=O)NC4=O)c3)CC2)CC1 [Compound A40, 1-(3-(4-((1-(2,6-Dimethoxy-4-(2-methyl-1-oxo-1,2-dihydro-2,7-naphthyridin-4-yl)phenethyl)piperidin-4-yl)oxy)piperidine-1-carbonyl)phenyl)dihydropyrimidine-2,4(1H,3H)-dione] |
| 13.54% | 60 nM | COc1cc(-c2cn(C)c(=O)c3cnccc23)c(OC)cc1CCN1CCC(OC2CCN(C(=O)c3ccc(OC)c(N4CCC(=O)NC4=O)c3)CC2)CC1 [Compound A41, 1-(5-(4-((1-(2,5-Dimethoxy-4-(2-methyl-1-oxo-1,2-dihydro-2,7-naphthyridin-4-yl)phenethyl)piperidin-4-yl)oxy)piperidine-1-carbonyl)-2-methoxyphenyl)dihydropyrimidine-2,4(1H,3H)-dione] |
| 13.53% | 98 nM | COc1ccc(C(=O)N2CCC(OC3CCN(Cc4c(OC)cc(-c5cn(C)c(=O)c6cnccc56)cc4OC)CC3)CC2)cc1N1CCC(=O)NC1=O [Compound A42, 1-(5-(4-((1-(2,6-Dimethoxy-4-(2-methyl-1-oxo-1,2-dihydro-2,7-naphthyridin-4-yl)benzyl)piperidin-4-yl)oxy)piperidine-1-carbonyl)-2-methoxyphenyl)dihydropyrimidine-2,4(1H,3H)-dione] |
| 11.90% | 2 nM | CCCn1cc(-c2cc(OC)c(CCN3CCC(OC4CCN(C(=O)c5ccc(Cl)c(N6CCC(=O)NC6=O)c5)CC4)CC3)c(OC)c2)cc(C)c1=O [Compound B1, 1-(2-Chloro-5-(4-((1-(2,6-dimethoxy-4-(5-methyl-6-oxo-1-propyl-1,6-dihydropyridin-3-yl)phenethyl)piperidin-4-yl)oxy)piperidine-1-carbonyl)phenyl)dihydropyrimidine-2,4(1H,3H)-dione] |
| 13.73% | 2 nM | CCCn1cc(-c2cc(OC)c(CCN3CCC(OC4CCN(C(=O)c5ccc(Cl)c(N6CCC(=O)NC6=O)c5)CC4)CC3)c(OC)c2)c(C)c(C)c1=O [Compound B2, 1-(2-Chloro-5-(4-(1-(4-(4,5-dimethyl-6-oxo-1-propyl-1,6-dihydropyridin-3-yl)-2,6-dimethoxyphenethyl)piperidin-4-yloxy)piperidine-1-carbonyl)phenyl)dihydropyrimidine-2,4(1H,3H)-dione] |
| 10.95% | 27 nM | CCCCn1cc(-c2cc(OC)c(CN3CCC(OC4CCN(C(=O)c5ccc(OC)c(N6CCC(=O)NC6=O)c5)CC4)CC3)cc2OC)c2ccncc2c1=O [Compound B3, 1-(5-(4-((1-(4-(2-butyl-1-oxo-1,2-dihydro-2,7-naphthyridin-4-yl)-2,5-dimethoxybenzyl)piperidin-4-yl)oxy)piperidine-1-carbonyl)-2-methoxyphenyl)dihydropyrimidine-2,4(1H,3H)-dione] |
| 14.82% | 3 nM | CCCCn1cc(-c2cc(OC)c(CCN3CCC(OC4CCN(C(=O)c5ccc(Cl)c(N6CCC(=O)NC6=O)c5)CC4)CC3)c(OC)c2)c2ccncc2c1=O [Compound B4, 1-(5-(4-((1-(4-(2-butyl-1-oxo-1,2-dihydro-2,7-naphthyridin-4-yl)-2,6-dimethoxyphenethyl)piperidin-4-yl)oxy)piperidine-1-carbonyl)-2-chlorophenyl)dihydropyrimidine-2,4(1H,3H)-dione] |
| 13.14% | 4 nM | CCCCn1cc(-c2ccc(OC3CCN(CC4CCN(C(=O)c5ccc(OC)c(N6CCC(=O)NC6=O)c5)CC4)CC3)c(OC)c2)c2ccncc2c1=O [Compound B5, 1-(5-(4-((4-(4-(2-butyl-1-oxo-1,2-dihydro-2,7-naphthyridin-4-yl)-2-methoxyphenoxy)piperidin-1-yl)methyl)piperidine-1-carbonyl)-2-methoxyphenyl)dihydropyrimidine-2,4(1H,3H)-dione] |
| 16.75% | 1 nM | CCCCn1cc(-c2ccc(OC3CCN(CC4CCN(C(=O)c5ccc(Cl)c(N6CCC(=O)NC6=O)c5)CC4)CC3)c(OC)c2)c2ccncc2c1=O [Compound B6, 1-(5-(4-((4-(4-(2-butyl-1-oxo-1,2-dihydro-2,7-naphthyridin-4-yl)-2-methoxyphenoxy)piperidin-1-yl)methyl)piperidine-1-carbonyl)-2-chlorophenyl)dihydropyrimidine-2,4(1H,3H)-dione] |
| 17.54% | 7 nM | CCCCn1cc(-c2cc(OC)c(OCC3CCN(CC4CCN(C(=O)c5ccc(OC)c(N6CCC(=O)NC6=O)c5)CC4)CC3)c(OC)c2)c2ccncc2c1=O [Compound B7, 1-(5-(4-((4-((4-(2-butyl-1-oxo-1,2-dihydro-2,7-naphthyridin-4-yl)-2,6-dimethoxyphenoxy)methyl)piperidin-1-yl)methyl)piperidine-1-carbonyl)-2-methoxyphenyl)dihydropyrimidine-2,4(1H,3H)-dione] |
| 17.89% | 3 nM | CCCCn1cc(-c2cc(OC)c(OCC3CCN(CC4CCN(C(=O)c5ccc(Cl)c(N6CCC(=O)NC6=O)c5)CC4)CC3)c(OC)c2)c2ccncc2c1=O [Compound B8, 1-(5-(4-((4-((4-(2-butyl-1-oxo-1,2-dihydro-2,7-naphthyridin-4-yl)-2,6-dimethoxyphenoxy)methyl)piperidin-1-yl)methyl)piperidine-1-carbonyl)-2-chlorophenyl)dihydropyrimidine-2,4(1H,3H)-dione] |
| 14.33% | 1 nM | CCCCn1cc(-c2cc(OC)c(OC3CCN(CC4CCN(C(=O)c5ccc(Cl)c(N6CCC(=O)NC6=O)c5)CC4)CC3)c(OC)c2)c2ccncc2c1=O [Compound B9, 1-(5-(4-((4-(4-(2-butyl-1-oxo-1,2-dihydro-2,7-naphthyridin-4-yl)-2,6-dimethoxyphenoxy)piperidin-1-yl)methyl)piperidine-1-carbonyl)-2-chlorophenyl)dihydropyrimidine-2,4(1H,3H)-dione] |
| 16.55% | 6 nM | CCCCn1cc(-c2cc(OC)c(OC3CCN(CC4CCN(C(=O)c5ccc(OC)c(N6CCC(=O)NC6=O)c5)CC4)CC3)c(OC)c2)c2ccncc2c1=O [Compound B10, 1-(5-(4-((4-(4-(2-butyl-1-oxo-1,2-dihydro-2,7-naphthyridin-4-yl)-2,6-dimethoxyphenoxy)piperidin-1-yl)methyl)piperidine-1-carbonyl)-2-methoxyphenyl)dihydropyrimidine-2,4(1H,3H)-dione] |
| 13.59% | 29 nM | COc1cc(-c2cn(C)c(=O)c3cnccc23)c(OC)cc1CN1CCC(OC2CCN(CCn3cccc(CN4CCC(=O)NC4=O)c3=O)CC2)CC1 [Compound C1, 1-((1-(2-(4-(1-(2,5-Dimethoxy-4-(2-methyl-1-oxo-1,2-dihydro-2,7-naphthyridin-4-yl)benzyl)piperidin-4-yloxy)piperidin-1-yl)ethyl)-2-oxo-1,2-dihydropyridin-3-yl)methyl)dihydropyrimidine-2,4(1H,3H)-dione] |
| 11.95% | 29 nM | COc1cc(-c2cn(C)c(=O)c3cnccc23)cc(OC)c1CN1CCC(OC2CCN(CCn3cccc(CN4CCC(=O)NC4=O)c3=O)CC2)CC1 [Compound C2, 1-((1-(2-(4-((1-(2,6-dimethoxy-4-(2-methyl-1-oxo-1,2-dihydro-2,7-naphthyridin-4-yl)benzyl)piperidin-4-yl)oxy)piperidin-1-yl)ethyl)-2-oxo-1,2-dihydropyridin-3-yl)methyl)dihydropyrimidine-2,4(1H,3H)-dione] |
| 17.50% | 77 nM | COc1cc(-c2cn(C)c(=O)c3cnccc23)c(OC)cc1CCN1CCC(OC2CCN(CCn3cccc(CN4CCC(=O)NC4=O)c3=O)CC2)CC1 [Compound C3, 1-((1-(2-(4-((1-(2,5-dimethoxy-4-(2-methyl-1-oxo-1,2-dihydro-2,7-naphthyridin-4-yl)phenethyl)piperidin-4-yl)oxy)piperidin-1-yl)ethyl)-2-oxo-1,2-dihydropyridin-3-yl)methyl)dihydropyrimidine-2,4(1H,3H)-dione] |
| 19.82% | 17 nM | COc1cc(-c2cn(C)c(=O)c3cnccc23)cc(OC)c1CCN1CCC(OC2CCN(CCn3cccc(CN4CCC(=O)NC4=O)c3=O)CC2)CC1 [Compound C4, 1-((1-(2-(4-((1-(2,6-dimethoxy-4-(2-methyl-1-oxo-1,2-dihydro-2,7-naphthyridin-4-yl)phenethyl)piperidin-4-yl)oxy)piperidin-1-yl)ethyl)-2-oxo-1,2-dihydropyridin-3-yl)methyl)dihydropyrimidine-2,4(1H,3H)-dione] |
